The target of one assay is T1, MU1 (unidentified, UniProt Z9NE32H8P7).
T1 construct: metagenomic phage display insert in pET-28a(+) (NdeI/XhoI; forward primer in the T7 vector upstream of the insert), N-terminal His6 kept, E. coli BL21(DE3); monomer, ~39 kDa by SEC; GenBank entry within MN313892-MN313895, ON711254-ON711279, not assigned in text
T1 sequence (Z9NE32H8P7 1-238): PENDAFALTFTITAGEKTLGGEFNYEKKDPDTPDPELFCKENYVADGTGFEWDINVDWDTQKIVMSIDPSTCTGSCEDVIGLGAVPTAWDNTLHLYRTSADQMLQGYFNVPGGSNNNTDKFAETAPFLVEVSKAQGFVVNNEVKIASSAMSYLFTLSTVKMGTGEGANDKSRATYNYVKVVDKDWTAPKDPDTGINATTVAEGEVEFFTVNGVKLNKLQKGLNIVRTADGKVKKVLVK
In words: isothermal titration calorimetry. It is filed as binding, Homo sapiens. The note with it: 20 mM HEPES, 150 mM NaCl, pH 7.5; sequential two-sites model, stronger site.

The next assay deals with T2, MN3 (unidentified, UniProt Z9ZPU1GRL3).
T2 construct: metagenomic phage display insert in pET-28a(+) (EcoRI/HindIII), N- and C-terminal His6 kept, E. coli BL21(DE3); monomer (~33 kDa) and dimer (~77 kDa); GenBank entry within MN313892-MN313895, ON711254-ON711279, not assigned in text
T2 sequence (Z9ZPU1GRL3 1-298): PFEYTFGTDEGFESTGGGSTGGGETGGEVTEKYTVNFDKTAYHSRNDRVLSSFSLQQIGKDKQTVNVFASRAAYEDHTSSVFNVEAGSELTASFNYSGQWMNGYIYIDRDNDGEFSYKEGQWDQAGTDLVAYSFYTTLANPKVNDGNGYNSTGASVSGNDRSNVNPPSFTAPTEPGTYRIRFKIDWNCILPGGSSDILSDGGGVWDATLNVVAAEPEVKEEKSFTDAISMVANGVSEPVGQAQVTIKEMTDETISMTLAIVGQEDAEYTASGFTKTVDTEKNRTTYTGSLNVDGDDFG
Kind of assay: isothermal titration calorimetry. Particulars: 20 mM HEPES, 150 mM NaCl, pH 7.5; sequential two-sites model, stronger site. It is filed as binding, Homo sapiens. In general terms: Isothermal titration calorimetry measures the heat released or taken up as one component is titrated into another.

The target of assay [1] is MN3 (human fecal metagenome (organism not identified)). In words: SEC; HiPrep 26/60 HR Sephacryl S-200, 150 mM NaCl, 20 mM Tris pH 7.5, mostly 1.0 ml/min. A general note: Size exclusion chromatography separates by hydrodynamic size, large species first.
The next assay has as its target T3, Fetuin (UniProt P12763 19-359, sialylated).
T3 construct: fetuin, a glycoprotein used as a glycan ligand in calorimetry; also called sialylated fetuin
T3 sequence (looked up): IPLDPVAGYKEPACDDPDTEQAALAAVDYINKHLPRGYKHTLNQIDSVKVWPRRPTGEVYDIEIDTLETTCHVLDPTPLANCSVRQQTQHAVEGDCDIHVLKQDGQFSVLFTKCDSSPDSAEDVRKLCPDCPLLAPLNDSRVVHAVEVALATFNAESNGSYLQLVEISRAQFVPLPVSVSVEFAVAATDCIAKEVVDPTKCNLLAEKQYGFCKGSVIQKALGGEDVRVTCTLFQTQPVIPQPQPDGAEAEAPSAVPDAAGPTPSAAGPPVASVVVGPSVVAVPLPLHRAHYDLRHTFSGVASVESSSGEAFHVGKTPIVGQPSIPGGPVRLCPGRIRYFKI
Kind of assay: ITC; VP-ITC; protein in the sample cell, ligand titrated (20 or 35 injections at intervals of 180 s); buffer mostly 20 mM HEPES, 150 mM NaCl, pH 7.5; single run. Particulars: both partners purified.

In the case of `C#CCN(C(C)=O)[C@@H]1O[C@H](CO)[C@@H](O[C@@H]2O[C@H](CO)[C@H](O)[C@H](O[C@@H]3O[C@H](CO)[C@@H](O[C@@H]4O[C@H](CO)[C@H](O)[C@H](O)[C@H]4O[C@@H]4O[C@@H](C)[C@@H](O)[C@@H](O)[C@@H]4O)[C@H](O)[C@H]3NC(C)=O)[C@H]2O)[C@H](O)[C@H]1O` [H antigen type-2 pentaose], the Kd on MU1 amounted to 20.8 µM; at MN3, 36.8 µM.

B1: MN3 (domain or fragment)
chain: PFEYTFGTDEGFESTGGGSTGGGETGGEVTEKYTVNFDKTAYHSRNDRVLSSFSLQQIGKDKQTVNVFASRAAYEDHTSSVFNVEAGSELTASFNYSGQWMNGYIYIDRDNDGEFSYKEGQWDQAGTDLVAYSFYTTLANPKVNDGNGYNSTGASVSGNDRSNVNPPSFTAPTEPGTYRIRFKIDWNCILPGGSSDILSDGGGVWDATLNVVAAEPEVKEEKSFTDAISMVANGVSEPVGQAQVTIKEMTDETISMTLAIVGQEDAEYTASGFTKTVDTEKNRTTYTGSLNVDGDDFG
modifications: not checked
In assay [1], B1 displayed a stoichiometry N of 2.

B2: MU3 (domain or fragment)
chain: QTPKDVTVVEKYQADGTGFSHTINVDWDKQKIVASIDFSNGGDDKDILAMTTGDSFTAFQTSTYRTMHWYCNQTAKQISGFFAKSGAGNNNTGRIDVADCLAKFEISKAEGLKVNGVVKMTPDALEELLTGDPIIIGSGESPKFSNAFYNYIKVVSLDWKETTEPEVTVKDEKTFNEALYMQDQKVADATVVVKG
For B2, the Kd with Fetuin was 239 µM.

As usually defined, the Kd is the free concentration of one partner at which half of the binding sites on the other are occupied at equilibrium, for simple one-to-one binding. A higher Kd goes with lower affinity. As a reminder, the stoichiometry N is a count of units in the complex or per binding partner.

The record behind these values is paper PMC10076258, “New carbohydrate binding domains identified by phage display based functional metagenomic screens of human gut microbiota” (Communications Biology, 2023).
